Assay results: patent publication US12269831B2, “Modulators of cystic fibrosis transmembrane conductance regulator” (Vertex Pharmaceuticals Incorporated, priority 2020, dated 2025)

Biological target: T1, CFTR (F508del/MF-HBE cells) (Homo sapiens, UniProt P13569, DEL508-508)
T1 construct: human bronchial epithelial (HBE) cells derived from CF subjects heterozygous for F508del and a minimal function CFTR mutation (F508del/MF-HBE); endogenous in cells; host or cells: primary human bronchial epithelial (HBE) cells from CF subjects, genotype F508del/minimal function
Experiment: Ussing chamber assay of CFTR-mediated short-circuit currents (potentiator identification)
Assay type: cell-based
Details: CFTR-mediated Isc, 18-24 h incubation at 37° C. with 10 μM (14S)-8-[3-(2-{dispiro[2.0.2.1]heptan-7-yl}ethoxy)-1H-pyrazol-1-yl]-... corrector, 20% human serum
Description: Ussing Chamber Assay of CFTR-Mediated Short-Circuit Currents
Ussing chamber experiments were performed using human bronchial epithelial (HBE) cells derived from CF subjects heterozygous for F508del and a minimal function CFTR mutation (F508del/MF-HBE) and cultured as previously described (Neuberger T, Burton B, Clark H, Van Goor F Methods Mol Biol 2011:741:39-54). After four days the apical media was removed, and the cells were grown at an air liquid interface for >14 days prior to use.
To isolate the CFTR-mediated short-circuit (Isc) current, F508del/MF-HBE grown on Costar® Snapwell™ cell culture inserts were mounted in an Ussing chamber and the transepithelial ISC was measured under voltage-clamp recording conditions (Vhold=0 mV) at 37° C. The basolateral solution contained (in mM) 145 NaCl, 0.83 K2HPO4, 3.3 KH2PO4, 1.2 MgCl2, 1.2 CaCl2, 10 Glucose, 10 HEPES (pH adjusted to 7.4 with NaOH) and the apical solution contained (in mM) 145 NaGluconate, 1.2 MgCl2, 1.2 CaCl2, 10 glucose, 10 HEPES (pH adjusted to 7.4 with NaOH) and 30 μM amiloride to block the epithelial sodium channel. Forskolin (20 μM) was added to the apical surface to activate CFTR, followed by apical addition of a CFTR inhibitor cocktail consisting of BPO, GlyH-101 and CFTR inhibitor 172 (each at 20 μM final assay concentration) to specifically isolate CFTR currents. The CFTR-mediated Isc (μA/cm^2) for each condition was determined from the peak forskolin response to the steady-state current following inhibition.
Identification of Potentiator Compounds
The activity of the CFTR potentiator compounds on the CFTR-mediated Isc was determined in Ussing chamber studies as described above. The F508del/MF-HBE cell cultures were incubated with the potentiator compounds at a range of concentrations in combination with 10 μM (14S)-8-[3-(2-{dispiro[2.0.2.1]heptan-7-yl}ethoxy)-1H-pyrazol-1-yl]-12,12-dimethyl-2λ^6-thia-3,9,11,18,23-pentaazatetracyclo[17.3.1.111,14.05,10]tetracosa-1(22),5,7,9,19(23),20-hexaene-2,2,4-trione for 18-24 hours at 37° C. and in the presence of 20% human serum. The concentration of potentiator compounds and (14S)-8-[3-(2-{dispiro[2.0.2.1]heptan-7-yl}ethoxy)-1H-pyrazol-1-yl]-12,12-dimethyl-2λ^6-thia-3,9,11,18,23-pentaazatetracyclo[17.3.1.111,14.05,10]tetracosa-1(22),5,7,9,19(23),20-hexaene-2,2,4-trione used during the 18-24 hours incubations was kept constant throughout the Ussing chamber measurement of the CFTR-mediated Isc to ensure compounds were present throughout the entire experiment. The efficacy and potency of the putative F508del potentiators was compared to that of the known Vertex potentiator, ivacaftor (N-[2,4-bis(1,1-dimethylethyl)-5-hydroxyphenyl]-1,4-dihydro-4-oxoquinoline-3-carboxamide).

T1 sequence (P13569 with tags, fused parts or gaps DEL508-508): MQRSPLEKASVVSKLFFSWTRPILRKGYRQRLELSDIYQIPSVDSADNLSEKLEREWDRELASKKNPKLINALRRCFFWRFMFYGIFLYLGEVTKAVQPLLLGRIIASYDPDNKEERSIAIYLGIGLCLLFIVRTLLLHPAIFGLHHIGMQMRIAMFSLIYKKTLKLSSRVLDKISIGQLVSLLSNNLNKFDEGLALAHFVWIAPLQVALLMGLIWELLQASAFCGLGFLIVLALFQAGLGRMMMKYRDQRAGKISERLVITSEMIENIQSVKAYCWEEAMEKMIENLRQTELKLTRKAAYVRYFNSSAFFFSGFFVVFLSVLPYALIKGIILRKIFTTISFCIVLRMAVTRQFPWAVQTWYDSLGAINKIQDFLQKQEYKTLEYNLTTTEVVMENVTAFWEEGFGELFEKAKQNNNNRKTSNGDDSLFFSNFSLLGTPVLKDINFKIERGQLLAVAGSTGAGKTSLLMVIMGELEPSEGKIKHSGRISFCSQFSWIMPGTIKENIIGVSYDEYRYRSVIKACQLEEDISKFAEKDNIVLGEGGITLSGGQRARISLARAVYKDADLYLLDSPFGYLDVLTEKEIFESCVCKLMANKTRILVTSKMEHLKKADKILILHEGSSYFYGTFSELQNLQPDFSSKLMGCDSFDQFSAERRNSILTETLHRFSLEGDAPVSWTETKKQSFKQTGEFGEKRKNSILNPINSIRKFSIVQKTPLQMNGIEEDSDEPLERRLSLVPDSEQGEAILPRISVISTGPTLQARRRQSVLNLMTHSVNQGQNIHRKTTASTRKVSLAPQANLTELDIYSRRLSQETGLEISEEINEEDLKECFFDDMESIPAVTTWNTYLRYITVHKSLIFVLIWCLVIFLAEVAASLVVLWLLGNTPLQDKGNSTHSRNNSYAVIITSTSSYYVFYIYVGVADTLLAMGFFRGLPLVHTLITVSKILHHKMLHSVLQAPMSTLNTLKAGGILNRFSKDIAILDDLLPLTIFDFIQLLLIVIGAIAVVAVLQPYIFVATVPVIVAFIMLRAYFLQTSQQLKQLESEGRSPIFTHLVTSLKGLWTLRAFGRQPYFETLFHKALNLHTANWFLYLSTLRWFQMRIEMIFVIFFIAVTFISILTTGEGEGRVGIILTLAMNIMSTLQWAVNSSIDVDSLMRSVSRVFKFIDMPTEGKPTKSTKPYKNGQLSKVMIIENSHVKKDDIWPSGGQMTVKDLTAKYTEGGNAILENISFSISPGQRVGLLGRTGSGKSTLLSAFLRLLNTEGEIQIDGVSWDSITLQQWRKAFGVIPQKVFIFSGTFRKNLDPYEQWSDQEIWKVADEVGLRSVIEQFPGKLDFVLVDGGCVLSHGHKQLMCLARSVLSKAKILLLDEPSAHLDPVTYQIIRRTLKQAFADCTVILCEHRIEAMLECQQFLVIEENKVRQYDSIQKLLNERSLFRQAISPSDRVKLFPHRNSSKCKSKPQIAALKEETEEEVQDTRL

| Structure (SMILES) | EC50 [µM] |
| --- | --- |
| C[C@@H]1COCCC[C@](O)(C(F)(F)F)C2=NN=C(O2)c2nc(c(C(F)(F)F)cc2N)O1 [Compound 59, (6R,12R)-17-amino-12-methyl-6,15-bis(trifluoromethyl)-10,13,19-trioxa-3,4,18-triazatricyclo[12.3.1.12,5]nonadeca-1(18),2,4,14,16-pentaen-6-ol] | > 1 |
| C[C@@H]1CC(=O)CCC[C@](O)(C(F)(F)F)C2=NN=C(O2)c2nc(c(C(F)(F)F)cc2N)O1 [Compound 25, (6R,12R)-17-amino-6-hydroxy-12-methyl-6,15-bis(trifluoromethyl)-13,19-dioxa-3,4,18-triazatricyclo[12.3.1.12,5]nonadeca-1(18),2,4,14,16-pentaen-10-one] | > 1 |
| Nc1cc(C(F)(F)F)c2nc1-c1nnc(o1)[C@@](O)(C(F)(F)F)CCCCCS2 [Compound 22, (6R)-16-amino-6,14-bis(trifluoromethyl)-18-oxa-12-thia-3,4,17-triazatricyclo[11.3.1.12,5]octadeca-1(17),2,4,13,15-pentaen-6-ol] | < 0.5 |
| CC1CCC(O)(C(F)(F)F)C2=NN=C(O2)c2nc(c(C(F)(F)F)cc2N)Oc2cccc1c2 (single isomer, unassigned) [Compound 30, 19-amino-9-methyl-6,17-bis(trifluoromethyl)-15,22-dioxa-3,4,20-triazatetracyclo[14.3.1.12,5.110,14]docosa-1(20),2,4,10(21),11,13,16,18-octaen-6-ol] | < 0.5 |
| C[C@H]1Oc2nc(c(N)cc2C(F)(F)F)C2=NN=C(O2)[C@@](O)(C(F)(F)F)CCCCC1O (single isomer, unassigned) [Compound 41] | < 0.5 |
| CC(C)C1CCCCC[C@](O)(C(F)(F)F)C2=NN=C(O2)c2nc(c(C(F)(F)F)cc2N)O1 (single isomer, unassigned) [Compound 34] | < 0.5 |
| C[C@H]1CCCCC[C@@](O)(C(F)(F)F)C2=NN=C(O2)c2nc(c(C(F)(F)F)cc2N)O1 [Compound 13, (6S,12S)-17-amino-12-methyl-6,15-bis(trifluoromethyl)-13,19-dioxa-3,4,18-triazatricyclo[12.3.1.12,5]nonadeca-1(18),2,4,14,16-pentaen-6-ol] | < 0.5 |
| CC(C)(C)c1cccc(CC2CCCCC[C@](O)(C(F)(F)F)C3=NN=C(O3)c3nc(c(C(F)(F)F)cc3N)O2)c1 (single isomer, unassigned) [Compound 52] | < 0.5 |
| Nc1cc(C(F)(F)F)c2nc1-c1nnc(o1)C(O)(C(F)(F)F)CCCCc1cc(F)cc(c1)O2 (single isomer, unassigned) [Compound 31, 20-amino-13-fluoro-6,18-bis(trifluoromethyl)-16,23-dioxa-3,4,21-triazatetracyclo[15.3.1.12,5.111,15]tricosa-1(21),2,4,11(22),12,14,17,19-octaen-6-ol] | < 0.5 |
| C[C@@H]1CCCc2ccc(F)c(c2)C(O)(C(F)(F)F)C2=NN=C(O2)c2nc(c(C(F)(F)F)cc2N)O1 (stereo partly drawn) [Compound 18, (15R)-20-amino-8-fluoro-15-methyl-6,18-bis(trifluoromethyl)-16,23-dioxa-3,4,21-triazatetracyclo[15.3.1.12,5.17,11]tricosa-1(21),2,4,7(22),8,10,17,19-octaen-6-ol] | < 0.5 |
| [2H]C([2H])([2H])[C@@]1([2H])Oc2nc(c(N)cc2C(F)(F)F)C2=NN=C(O2)[C@@](O)(C(F)(F)F)CCCCC1([2H])[2H] [Compound 39, (6R,12R)-17-amino-11,11,12-trideuterio-12-(trideuteriomethyl)-6,15-bis(trifluoromethyl)-13,19-dioxa-3,4,18-triazatricyclo[12.3.1.12,5]nonadeca-1(18),2,4,14,16-pentaen-6-ol] | < 0.5 |
| CC1CCCCCC(O)(C(F)(F)F)C2=NN=C(O2)c2nc(c(C(F)(F)F)cc2N)O1 (centres unmarked) [Compound 7, 17-amino-12-methyl-6,15-bis(trifluoromethyl)-13,19-dioxa-3,4,18-triazatricyclo[12.3.1.12,5]nonadeca-1(18),2,4,14,16-pentaen-6-ol] | < 0.5 |
| [2H]C1CC[C@@H](C)Oc2nc(c(N)cc2C(F)(F)F)C2=NN=C(O2)[C@@](O)(C(F)(F)F)CC1[2H] (stereo partly drawn) [Compound 44, (6R,12R)-17-amino-8,9-dideuterio-12-methyl-6,15-bis(trifluoromethyl)-13,19-dioxa-3,4,18-triazatricyclo[12.3.1.12,5]nonadeca-1(17),2,4,14(18),15-pentaen-6-ol] | < 0.5 |
| Nc1cc(C(F)(F)F)c2nc1-c1nnc(o1)C(O)(C(F)(F)F)CCCCc1ccccc1O2 (centres unmarked) [Compound 17, 21-amino-6,19-bis(trifluoromethyl)-17,23-dioxa-3,4,22-triazatetracyclo[16.3.1.12,5.011,16]tricosa-1(22),2,4,11(16),12,14,18,20-octaen-6-ol] | < 0.5 |
| Nc1cc(C(F)(F)F)c2nc1-c1nnc(o1)[C@](O)(C(F)(F)F)CCCCCCO2 [Compound 6, (6S)-17-amino-6,15-bis(trifluoromethyl)-13,19-dioxa-3,4,18-triazatricyclo[12.3.1.12,5]nonadeca-1(18),2,4,14,16-pentaen-6-ol] | > 1 |
| C[C@@H]1CC2CC2CC[C@](O)(C(F)(F)F)C2=NN=C(O2)c2nc(c(C(F)(F)F)cc2N)O1 (single isomer, unassigned) [Compound 63] | < 0.5 |
| Nc1cc(C(F)(F)F)c2nc1-c1nnc(o1)[C@@](O)(C(F)(F)F)CCCCCC[S@+]2[O-] [Compound 19, (6R,13S)-17-Amino-13-oxido-6,15-bis(trifluoromethyl)-19-oxa-13-thionia-3,4,18-triazatricyclo[12.3.1.12,5]nonadeca-1(18),2,4,14,16-pentaen-6-ol] | < 0.5 |
| C[C@@H]1CCCC(O)C[C@](O)(C(F)(F)F)C2=NN=C(O2)c2nc(c(C(F)(F)F)cc2N)O1 (single isomer, unassigned) [Compound 53] | < 0.5 |

Further lines, results first:

| EC50 [µM] | Structure (SMILES) |
| --- | --- |
| < 0.5 | [2H]C1CC[C@](O)(C(F)(F)F)C2=NN=C(O2)c2nc(c(C(F)(F)F)cc2N)O[C@H](C)CC1[2H] (stereo partly drawn) [Compound 38, (6R,12R)-17-amino-9,10-dideuterio-12-methyl-6,15-bis(trifluoromethyl)-13,19-dioxa-3,4,18-triazatricyclo[12.3.1.12,5]nonadeca-1(18),2,4,14,16-pentaen-6-ol] |
| < 0.5 | C[C@H]1Oc2nc(c(N)cc2C(F)(F)F)C2=NN=C(O2)[C@@](O)(C(F)(F)F)CCCCC1O (single isomer, unassigned) [Compound 40] |
| < 0.5 | Nc1cc(C(F)(F)F)c2nc1-c1nnc(o1)C(O)(C(F)(F)F)CCCCCS2(=O)=O (single isomer, unassigned) [Compound 15, 16-amino-12,12-dioxo-6,14-bis(trifluoromethyl)-18-oxa-12λ^6-thia-3,4,17-triazatricyclo[11.3.1.12,5]octadeca-1(17),2,4,13,15-pentaen-6-ol] |
| < 0.5 | Nc1cc(C(F)(F)F)c2nc1-c1nnc(o1)[C@@](O)(C(F)(F)F)CCCCCC(Cc1ccc(F)cc1)O2 (single isomer, unassigned) [Compound 50] |
| < 0.5 | Nc1cc(C(F)(F)F)c2nc1-c1nnc(o1)[C@@](O)(C(F)(F)F)CCCCCCS2(=O)=O (single isomer, unassigned) [Compound 9] |
| < 0.5 | Nc1cc(C(F)(F)F)c2nc1-c1nnc(o1)[C@@](O)(C(F)(F)F)CCCCC[C@@H](CO)O2 [Compound 37, (6R,12S)-17-amino-12-(hydroxymethyl)-6,15-bis(trifluoromethyl)-13,19-dioxa-3,4,18-triazatricyclo[12.3.1.12,5]nonadeca-1(18),2,4,14,16-pentaen-6-ol] |
| < 0.5 | C[C@@H]1CCCCC(O)C(O)(C(F)(F)F)C2=NN=C(O2)c2nc(c(C(F)(F)F)cc2N)O1 (single isomer, unassigned) [Compound 57] |
| < 0.5 | C[C@@H]1CC(O)CCC[C@](O)(C(F)(F)F)C2=NN=C(O2)c2nc(c(C(F)(F)F)cc2N)O1 (single isomer, unassigned) [Compound 46] |
